From patent publication US4680411A, “Pyrano[2,3-g]indoles useful as anti-ulcerous, anti-inflammatory and antalgic agent” (Societe de Recherches Industrielles, priority 1980, dated 1987) come the findings set out here.

Where only a bound is given, the exact number is not on record here.

The nature of data set [1]: Inhibition of ulcer provoked by serotonin (Hashizume technique). In kind it is in vivo, male Sprague-Dawley rats. Particulars: serotonin 60 mg/kg sub-cutaneous. Here is the method: ULCER PROVOKED BY SEROTONIN The technique used is the one described by Hashizume, in Arch. Int. Pharmacodyn. 236, 96-108, (1978). The experiment is carried out on 3 batches of male Sprague-Dawley rats. Each batch includes 20 animals. The first batch constitutes the controls, the second is treated with Carbenoxolone, the third is treated with the product to be tested. The animals are made to fast 24 hours before the experiment. At t=0, the product to be tested is administered by the IP route to the third batch, 100 mg/kg of Carbenoxolone are administered per os to the second batch. At t=+10 mins., a sub-cutaneous injection is made of serotonin at 60 mg/kg in the three batches. At t=+250 mins., the animals are sacrificed. The stomachs are removed and spread out and the ulcers are marked as follows: small ulcer +=1 average ulcer ++=3 large ulcer +++=9 The results relative to the inhibition of the ulcers provoked by serotonin are given in Table IV hereinbelow with the doses of the products tested.

Data set [2] is described as follows: Inhibition of oedema provoked by carragenine (anti-inflammatory effect). It is filed as in vivo. The following applies: IP, dose equal to one tenth of the LD50 IP. From the text: (§1) The techniques relative to the anti-inflammatory effects (oedema caused by carragenine) and antalgic effects (cramping) which were used are the conventional techniques described in the prior art.
(§2) Table III hereinbelow deals with the LD50 and with the inhibition of the ulcers caused by aspirin, the inhibition of the oedema provoked by carragenine and cramping (the products to be tested being, in the latter two cases, administered by the IP route at a dose equal to one tenth of the LD50 IP).

A short description of data set [3]: Inhibition of ulcer provoked by aspirin. In kind it is in vivo, male Wistar rats. The following applies: Rattus norvegicus; rats; 100 mg/kg IP at t=0 and again at t=18 h; aspirin 192 mg/kg per os; sacrificed at t=22 h; read-out: Aspirine induced ulcer % inhibition. As for the experimental part:
The experiment is carried out on male Wistar rats weighing 180 to 200 g.
At t=0 the rats are made to fast and a first administration of the product to be tested, at a dose of 100 mg/kg, is made IP. At t=18 hours, 2 ml of an ulcer-forming suspension with 192 mg of aspirin/kg are administered per os then a second IP administration of the product to be tested, at a dose of 100 mg/kg, is made.
At t=22 hours, the animals are sacrificed and the ulcers are marked as follows: small punctiform ulcers: mark 1 more extensive ulcers: mark 3 very extensive or very deep ulcers: mark 9
as §2

Data set [4] can be described thus: Clinic: treatment of oedemas in man. In kind it is in vivo.
A short description of data set [5]: Inhibition of cramping (antalgic effect). It is filed as in vivo. The following applies: IP, dose equal to one tenth of the LD50 IP.
Description: as §1, §2

The nature of data set [6]: Toxicity, LD50 (DL50) I.P. Particulars: in vivo, ip.
Description: The pharmacological tests carried out particularly with regard to toxicity, the ulcers provoked by aspirin and serotonin, and the anti-inflammatory and antalgic effects, are summarised hereinafter. The methods used are recalled hereinafter.
as §2

The nature of data set [7]: Clinic: treatment of pain in man. It is filed as in vivo.
Data set [8] can be described thus: Clinic: treatment of ulcers in man. It is filed as in vivo.

For `CC1(C)[C@@H](OC(=O)CCC(=O)O)CC[C@]2(C)[C@H]3C(=O)C=C4[C@@H]5C[C@@](C)(C(=O)O)CC[C@]5(C)CC[C@@]4(C)[C@]3(C)CC[C@@H]12` [Carbenoxolone, reference compound], the “Serotonine ulcer % inhibition” value in data set [1] (Carbenoxolone 60 mg/kg IP as printed in table, method says 100 mg/kg per os) was 64%.

The term LD50 denotes the dose expected to kill half of the subjects tested. The low end stands for greater toxicity, the high end for lower toxicity. On to `O=C(O)c1cc2ccc3c(c2[nH]1)CCCO3` [Example 4, 7,8,9-trihydro-pyrano[2,3-g]indole-2-carboxylic acid], for which, in data set [2], the “Carragheenine oedema % inhibition” value is given as 35%. In addition, the inhibition in vivo at 100 mg/kg in data set [3] was found to be 11%. In addition, the “results in the treatment of oedemas” value in data set [4] was “excellent results”. Further, the Cramping % inhibition in data set [5] is listed as 36%. Further, the median lethal dose (LD50) in data set [6] (I.P.) was determined as 600 mg/kg.

`O=C(O)c1cc2cc(Cl)c3c(c2[nH]1)CCCO3` [Example 5, 5-chloro-7,8,9-trihydro-pyrano[2,3-g]indole-2-carboxylic acid]: the “Carragheenine oedema % inhibition” value in data set [2] is recorded as 30%. Moreover, the inhibition in vivo at 100 mg/kg in data set [3] stood at 28%. Also, the “results in the treatment of oedemas” value in data set [4] is reported as “excellent results”. In addition, the Cramping % inhibition in data set [5] amounted to 35%. The same compound came in with an LD50 in data set [6] (I.P.) of 300 mg/kg.

`COc1cc2cc(C(=O)O)[nH]c2c2c1OCCC2` [Example 6, 5-methoxy-7,8,9-trihydro-pyrano[2,3-g]indole-2-carboxylic acid]: in data set [7], the “results in the treatment of pain” value was “excellent results”. For the same compound, in data set [3], the inhibition in vivo at 100 mg/kg turned out to be 23%. This compound registered a Cramping % inhibition in data set [5] of 66%. This compound also yielded an LD50 in data set [6] (I.P.) above 800 mg/kg.

Take `c1cc2ccc3c(c2[nH]1)CCCO3` [Example 7, 7,8,9-trihydro-pyrano[2,3-g]indole]: the inhibition in vivo at 100 mg/kg in data set [3] came out at 46%. The “results in the treatment of ulcers” value in data set [8] was “excellent results”. Further, the “Serotonine ulcer % inhibition” value in data set [1] (75 mg/kg IP) was 64%. The same compound yielded a Cramping % inhibition in data set [5] of 14%. In addition, the LD50 in data set [6] (I.P.) is 750 mg/kg.

As for `Clc1cc2cc[nH]c2c2c1OCCC2` [Example 8, 5-chloro-7,8,9-trihydro-pyrano[2,3-g]indole], in data set [2], the “Carragheenine oedema % inhibition” value is listed as 33%. Also, the inhibition in vivo at 100 mg/kg in data set [3] turned out to be 42.5%. The “results in the treatment of ulcers” value in data set [8] is “excellent results”. Further, the “Serotonine ulcer % inhibition” value in data set [1] (45 mg/kg IP) was 75%. Also, the Cramping % inhibition in data set [5] is on record as 26%. The compound also came in with an LD50 in data set [6] (I.P.) of 900 mg/kg.

Regarding `COc1cc2cc[nH]c2c2c1OCCC2` [Example 9, 5-methoxy-7,8,9-trihydro-pyrano[2,3-g]indole], in data set [2], the “Carragheenine oedema % inhibition” value worked out at 39%. Further, the inhibition in vivo at 100 mg/kg in data set [3] turned out to be 51%. Besides, the “results in the treatment of oedemas” value in data set [4] is “excellent results”. In data set [5], the Cramping % inhibition worked out at 41%. Also, the LD50 in data set [6] (I.P.) turned out to be 650 mg/kg.

With `CN(C)Cc1c[nH]c2c3c(ccc12)OCCC3` [Example 14, 3-(7,8,9-trihydro-pyrano[2,3-g]indolyl)-N,N-dimethylmethylamine], in data set [2], the “Carragheenine oedema % inhibition” value came out at 22%. In addition, in data set [3], the inhibition in vivo at 100 mg/kg is 47.5%. The “results in the treatment of ulcers” value in data set [8] is “excellent results”. In data set [5], this compound showed a Cramping % inhibition of 67%. Moreover, the median lethal dose (LD50) in data set [6] is 180 mg/kg.

In the case of `COc1cc2cc(C(=O)O)[nH]c2c2c1OCCC2=O` [Example 19, 5-methoxy-9-oxo-7,8-dihydro-pyrano[2,3-g]indole-2-carboxylic acid], in data set [3], the inhibition in vivo at 100 mg/kg turned out to be 49%. In addition, the “results in the treatment of ulcers” value in data set [8] is given as “excellent results”. The compound also yielded an LD50 in data set [6] (I.P.) above 1000 mg/kg.

For `COc1cc2cc[nH]c2c2c1OCCC2=O` [Example 21, 5-methoxy-9-oxo-7,8-dihydro-pyrano[2,3-g]indole], the “Carragheenine oedema % inhibition” value in data set [2] was determined as 49%. The inhibition in vivo at 100 mg/kg in data set [3] is 60%. Besides, in data set [8], the “results in the treatment of ulcers” value was “excellent results”. In addition, in data set [1] (60 mg/kg IP), the “Serotonine ulcer % inhibition” value was found to be 87%. Besides, the Cramping % inhibition in data set [5] stood at 37%. Besides, in data set [6] (I.P.), the median lethal dose (LD50) stood at 600 mg/kg.

As for `COc1cc2cc[nH]c2c2c1OCCC2=NO` [Example 23], the “Carragheenine oedema % inhibition” value in data set [2] is 52%. The inhibition in vivo at 100 mg/kg in data set [3] was determined as 40%. The “results in the treatment of ulcers” value in data set [8] is given as “excellent results”. For the same compound, the “Serotonine ulcer % inhibition” value in data set [1] (92 mg/kg IP) amounted to 52%. This compound also had a Cramping % inhibition in data set [5] of 51%. The compound also had a DLo in data set [6] above 800 mg/kg.

As to `COc1cc2cc[nH]c2c2c1OCCC2O` (stereo not shown) [Example 24], in data set [2], the “Carragheenine oedema % inhibition” value is recorded as 40%. Besides, in data set [4], the “results in the treatment of oedemas” value is “excellent results”. Further, the Cramping % inhibition in data set [5] is 60%. Also, the LD50 in data set [6] (I.P.) turned out to be 1000 mg/kg.
